Assay results: PubChem BioAssay (NCI)
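Cells were grown in 96-well plates and exposed to each compound for 48 hours at five concentrations; endpoints were interpolated linearly between bracketing concentrations, or set to the highest concentration if not reached. GI50 marks 50% less growth. TGI: total growth inhibition.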

What was measured:
Experiment in all cases: NCI tumour cell line growth inhibition, 48 h
[1] = system: IGROV1 ovarian
[2] = system: HCT-116 colon
[3] = system: CAKI-1 renal
[4] = system: SN12C renal
[5] = system: SNB-75 CNS
[6] = system: MCF7 breast
[7] = system: UACC-62 melanoma
[8] = system: ACHN renal
[9] = system: OVCAR-8 ovarian
[10] = system: UO-31 renal
[11] = system: HCT-15 colon
[12] = system: MDA-MB-231 breast
[13] = system: SF-295 CNS
[14] = system: A498 renal
[15] = system: SK-MEL-2 melanoma
[16] = system: SK-MEL-28 melanoma
[17] = system: BT-549 breast
[18] = system: HL-60(TB) leukemia
[19] = system: MALME-3M melanoma
[20] = system: LOX IMVI melanoma
[21] = system: U251 CNS
[22] = system: KM12 colon
[23] = system: OVCAR-3 ovarian
[24] = system: SNB-19 CNS
[25] = system: MOLT-4 leukemia
[26] = system: HT29 colon
[27] = system: RXF 393 renal
[28] = system: PC-3 prostate
[29] = system: TK-10 renal

## O=C(CS(=O)(=O)c1oc(-c2ccc(Cl)cc2)nc1S(=O)(=O)c1ccccc1)N1CCCC1
[1]
  GI50: 13.1 µM
  TGI: 29.3 µM
[2]
  GI50: 1.81 µM
  TGI: 4.07 µM
[3]
  GI50: 1.41 µM
  TGI: 2.75 µM
[4]
  GI50: 12 µM
  TGI: 24.9 µM
[5]
  GI50: 10.1 µM
  TGI: 23 µM
[6]
  GI50: 1.47 µM
  TGI: 3.34 µM
[7]
  GI50: 3.35 µM
  TGI: 13.6 µM
[8]
  GI50: 1.52 µM
  TGI: 2.85 µM
[9]
  GI50: 11.2 µM
  TGI: 33.2 µM
[10]
  GI50: 1.54 µM
  TGI: 2.96 µM
[11]
  GI50: 1.43 µM
  TGI: 2.99 µM
[12]
  GI50: 1.71 µM
  TGI: 3.1 µM
[13]
  GI50: 13.4 µM
  TGI: 26.8 µM
[14]
  GI50: 14.2 µM
  TGI: 27.3 µM
[15]
  GI50: 15 µM
  TGI: 29 µM
[16]
  GI50: 3.58 µM
  TGI: 12.5 µM
[17]
  GI50: 1.88 µM
  TGI: 3.48 µM
[18]
  GI50: 1.31 µM
  TGI: > 100 µM
[19]
  GI50: 1.69 µM
  TGI: 3.09 µM
[20]
  GI50: 1.49 µM
  TGI: 2.86 µM
[21]
  GI50: 15.9 µM
  TGI: 29.8 µM
[22]
  GI50: 16.8 µM
  TGI: 33 µM
[23]
  GI50: 1.29 µM
  TGI: 2.71 µM
[24]
  GI50: 16 µM
  TGI: 30.5 µM
[25]
  GI50: 2.38 µM
  TGI: > 100 µM
[26]
  GI50: 2.07 µM
  TGI: 5.07 µM
[27]
  GI50: 1.36 µM
  TGI: 2.79 µM
[28]
  GI50: 9.59 µM
  TGI: 27.5 µM
[29]
  GI50: 1.75 µM
  TGI: 3.19 µM
